From ChEMBL document CHEMBL1128949, “Novel tricyclic aminoacetyl and sulfonamide inhibitors of Ras farnesyl protein transferase” (Bioorg Med Chem Lett, 1996)

What was measured:
[1] = biological target: T1, Protein farnesyltransferase (Homo sapiens, UniProt P49354+P49356); assay: Inhibitory activity against Protein farnesyltransferase (Inactive); assay type: protein-complex assay
[2] = biological target: T1, Protein farnesyltransferase; assay: Inhibitory activity against protein farnesyltransferase.; assay type: protein-complex assay

Compound	IC50 [1]	IC50 [2]
CCCCCCCCCCCS(=O)(=O)N1CCC(=C2c3ccc(Cl)cc3CCc3cccnc32)CC1	Not Active	–
CCS(=O)(=O)N1CCC(=C2c3ccc(Cl)cc3CCc3cccnc32)CC1	–	5.2 µM
CCCCCCCCCCS(=O)(=O)N1CCC(=C2c3ccc(Cl)cc3CCc3cccnc32)CC1	Not Active	–
O=C([C@@H](Cc1c[nH]cn1)N1C(=O)c2ccccc2C1=O)N1CCC(=C2c3ccc(Cl)cc3CCc3cccnc32)CC1	–	3.6 µM
CCCCCCCCS(=O)(=O)N1CCC(=C2c3ccc(Cl)cc3CCc3cccnc32)CC1	–	> 12 µM
O=S(=O)(c1cccs1)N1CCC(=C2c3ccc(Cl)cc3CCc3cccnc32)CC1	–	13 µM
CC1(C)C2CCC1(CS(=O)(=O)N1CCC(=C3c4ccc(Cl)cc4CCc4cccnc43)CC1)C(=O)C2 (centres undefined)	–	11.4 µM
CN(C)S(=O)(=O)N1CCC(=C2c3ccc(Cl)cc3CCc3cccnc32)CC1	–	1.9 µM
CS(=O)(=O)N1CCC(=C2c3ccc(Cl)cc3CCc3cccnc32)CC1	–	1.9 µM
COc1ccc(CSC[C@@H](NC(=O)OC(C)(C)C)C(=O)N2CCC(=C3c4ccc(Cl)cc4CCc4cccnc43)CC2)cc1	–	3.05 µM
CC(C)(C)OC(=O)NCC(=O)N1CCC(=C2c3ccc(Cl)cc3CCc3cccnc32)CC1	–	6.8 µM
CCCCS(=O)(=O)N1CCC(=C2c3ccc(Cl)cc3CCc3cccnc32)CC1	–	4.8 µM
COc1ccc(CSC[C@@H](N)C(=O)N2CCC(=C3c4ccc(Cl)cc4CCc4cccnc43)CC2)cc1	–	6.29 µM
C=CS(=O)(=O)N1CCC(=C2c3ccc(Cl)cc3CCc3cccnc32)CC1	–	1 µM
O=[N+]([O-])c1ccc(S(=O)(=O)N2CCC(=C3c4ccc(Cl)cc4CCc4cccnc43)CC2)cc1	–	> 12 µM
CC1(C)C2CCC1(CS(=O)(=O)N1CCC(=C3c4ccc(Cl)cc4CCc4cccnc43)CC1)C(O)C2 (centres undefined)	–	8.2 µM

Further lines, results first:

IC50 [1]	IC50 [2]	Compound
–	0.66 µM	O=C(CN1C(=O)c2ccccc2C1=O)N1CCC(=C2c3ccc(Cl)cc3CCc3cccnc32)CC1
–	1 µM	O=S(=O)(Cc1ccccc1)N1CCC(=C2c3ccc(Cl)cc3CCc3cccnc32)CC1
–	> 11 µM	O=C(O)c1ccccc1S(=O)(=O)N1CCC(=C2c3ccc(Cl)cc3CCc3cccnc32)CC1
–	1.2 µM	O=C(N[C@H](Cc1ccc(O)cc1)C(=O)N1CCC(=C2c3ccc(Cl)cc3CCc3cccnc32)CC1)OCc1ccccc1
–	8.4 µM	O=C(Cc1ccccc1)NCC(=O)N1CCC(=C2c3ccc(Cl)cc3CCc3cccnc32)CC1
–	> 12 µM	O=S(=O)(c1ccc2ccccc2c1)N1CCC(=C2c3ccc(Cl)cc3CCc3cccnc32)CC1
–	22.3 µM	NCC(=O)N1CCC(=C2c3ccc(Cl)cc3CCc3cccnc32)CC1
–	2 µM	O=C(CN1C(=O)c2ccccc2S1(=O)=O)N1CCC(=C2c3ccc(Cl)cc3CCc3cccnc32)CC1
–	10.6 µM	COC(=O)c1ccccc1S(=O)(=O)N1CCC(=C2c3ccc(Cl)cc3CCc3cccnc32)CC1
–	> 10 µM	CC(C)C[C@H](C(=O)N1CCC(=C2c3ccc(Cl)cc3CCc3cccnc32)CC1)N1C(=O)c2ccccc2C1=O
–	> 10 µM	O=C([C@@H](Cc1ccccc1)N1C(=O)c2ccccc2C1=O)N1CCC(=C2c3ccc(Cl)cc3CCc3cccnc32)CC1
–	4.7 µM	CSCC[C@H](C(=O)N1CCC(=C2c3ccc(Cl)cc3CCc3cccnc32)CC1)N1C(=O)c2ccccc2C1=O
–	8.8 µM	O=C(NCC(=O)N1CCC(=C2c3ccc(Cl)cc3CCc3cccnc32)CC1)c1ccccc1
–	4.6 µM	C[C@H](C(=O)N1CCC(=C2c3ccc(Cl)cc3CCc3cccnc32)CC1)N1C(=O)c2ccccc2C1=O
–	4.8 µM	O=C(CC[C@H](C(=O)N1CCC(=C2c3ccc(Cl)cc3CCc3cccnc32)CC1)N1C(=O)c2ccccc2C1=O)Nc1ccccc1
–	9.6 µM	O=C(CNCc1ccccc1)N1CCC(=C2c3ccc(Cl)cc3CCc3cccnc32)CC1
–	> 10 µM	O=C(CNC(c1ccccc1)(c1ccccc1)c1ccccc1)N1CCC(=C2c3ccc(Cl)cc3CCc3cccnc32)CC1
–	8.5 µM	O=C(NCC(=O)N1CCC(=C2c3ccc(Cl)cc3CCc3cccnc32)CC1)OCc1ccccc1
